The subject of assay [1] is CHO-K1. As to the kind of experiment: Relationship between number of days of cell growth of each peptide and cell number (absorbance). Format: cell-based. To be noted: 1.1 mM GPP, 2.2 mM DGP, 2.1 mM GEK, 2.0 mM AGK, MEMα without FBS. As to the method:
Peptides having the sequences of Gly-Pro-Pro (GPP), Asp-Gly-Pro (DGP), Gly-Glu-Lys (GEK), and Ala-Gly-Lys (AGK) were synthesized to prepare each peptide solution such that the concentration was a concentration at which the cell number increased the most within a range of 0 mM to 5 mM. In other words, Gly-Pro-Pro (GPP) was adjusted to 11 mM, Asp-Gly-Pro (DGP) was adjusted to 22 mM, Gly-Glu-Lys (GEK) was adjusted to 21 mM, and Ala-Gly-Lys (AGK) was adjusted to 20 mM, and an amount of 1/10 of the total culture medium volume was added to each well immediately before the cell culture test such that final concentrations were 1.1 mM, 2.2 mM, 2.1 mM, and 2.0 mM, respectively.
A cell suspension prepared such that CHO-K1 (RIKEN BioResource Research Center, cell number: RCB2330) was at 3×10^4 cells/mL was seeded in a 96-well plate at 100 μL/well and cultured in an incubator at 37° C. and 5% CO2 for 24 hours. As a culture medium, an MEMα culture medium (Gibco) containing 10% FBS was used.
After removing the culture medium from each well and washing with the MEMα culture medium (100 μL), 90 μL of a new MEMα culture medium was dispensed into each well, and each peptide solution (10 μL) was added (total 100 μL/well) to perform culture for 0 to 5 days. Every day, 10 μL/well of a viable cell count measurement reagent SF (Nacalai Tesque Inc.) was added, and a color reaction was carried out in an incubator at 37° C. and 5% CO2 for 2 hours to measure an absorbance at 450 nm with a plate reader. A reference wavelength was 630 nm. It was confirmed that the absorbance at 450 nm correlated with the cell number. A similar culture test was performed using a system containing neither peptide nor FBS as a comparative sample.
The above preparation, culture, and measurement were performed with n=3, and Table 12 and FIG. 12 show the absorbance and the standard deviation of each peptide solution for each day.

Assay [2] relates to CHO DP-12. As to the kind of experiment: Cell growth test and protein production test on each peptide and combination of peptides on coating agent. The class given is cell-based. The following applies: one type of tripeptide: GPP 1.1 mM, DGP 2.2 mM, GEK 2.1 mM, AGK 2.0 mM, 5 days; for Amount of protein produced, Average / Viability, Average: average n=3; for Amount of protein produced, Average / Amount of protein produced, 1 / Amount of protein produced, 2 / Amount of protein produced, 3: ELISA; for Cells cell count, Average: poly-L-lysine coating, n=3; for Amount of protein produced, 1 / Viability, 1: replicate 1; for Amount of protein produced, 2 / Viability, 2: replicate 2; for Amount of protein produced, 3 / Viability, 3: replicate 3. As to the method: Peptides having the sequences of Gly-Pro-Pro (GPP), Asp-Gly-Pro (DGP), Gly-Glu-Lys (GEK), and Ala-Gly-Lys (AGK) were synthesized to prepare each peptide solution such that the concentration was a concentration at which the cell number increased the most within a range of 0 mM to 5 mM. In other words, Gly-Pro-Pro (GPP) was adjusted to 11 mM, Asp-Gly-Pro (DGP) was adjusted to 22 mM, Gly-Glu-Lys (GEK) was adjusted to 21 mM, and Ala-Gly-Lys (AGK) was adjusted to 20 mM, and an amount of 1/10 of the total culture medium volume was added to each well immediately before the cell culture test such that final concentrations were 1.1 mM, 2.2 mM, 2.1 mM, and 2.0 mM, respectively. Poly-L-lysine (Peptide Institute, Inc., Poly-L-Lysine Hydrochloride, code: 3075) was prepared to 0.1 mg/mL, and 200 μL was dispensed into each well of a 24-well plate, which was left to stand in an incubator at 37° C. for 2 hours. After removing the residual liquid with an aspirator, rinsing was performed with distilled water, irradiation was performed with a UV lamp in a clean bench without a lid, and drying was performed overnight to sterilize. A cell suspension prepared such that CHO DP-12 (ATCC, Cat. No. CRL-12445) was at 2×10^4 cells/well and 500 μL was seeded in a 24-well plate and cultured in an incubator at 37° C. and 5% CO2 for 24 hours. As a culture medium, a DMEM basal medium in which 200 nM of methotrexate and 2 μg/mL of insulin were blended in a DMEM culture medium (Gibco) containing 10% FBS was used.
After removing the culture medium from each well and washing with the DMEM basal medium (500 μL), 450 μL of a new DMEM basal medium was dispensed into each well, and each peptide solution (50 μL) was added (total 500 μL/well) to perform culture for 5 days.
As peptides, in addition to single GPP, DGP, GEK, and AGK, combinations of GPP+GEK, GPP+AGK, DGP+GEK, GEK+AGK, DGP+AGK, GPP+GEK+AGK, GPP+DGP+AGK, and GPP+DGP+GEK were used. A similar culture test was performed using a system containing neither peptide nor FBS as a comparative sample.
In order to measure the amount of protein produced, 100 μL of the culture medium supernatant was recovered in a 1.5 mL tube and diluted to quantitatively determine the amount of protein produced by an ELISA method.
In order to recover the cells, the culture medium in each well was recovered in a 1.5 mL tube to be rinsed with 200 μL of the DMEM basal medium, and the rinsed liquid was also recovered in the same 1.5 mL tube. Thereafter, 100 μL of trypsin was added and incubated for 3 minutes. After rinsing with 300 μL of the DMEM basal medium containing 10% FBS, the rinsed liquid was also recovered in the same 1.5 mL tube. After rinsing again with 200 μL of the DMEM basal medium containing 10% FBS, the rinsed liquid was also recovered in the same 1.5 mL tube.
A centrifugation operation was performed on the cells recovered in the 1.5 mL tube. The centrifugation conditions were 1,000 rpm, 10 minutes, and 4° C.
The supernatant was removed, and 300 μL of Cold PBS (phosphate buffered saline) was added to perform a centrifugation operation under the same conditions. The present operation was repeated twice.
Suspension was carried out with 100 μL of Binding Buffer, and 2 μL of propidium iodide (PI) was added and stirred in the tube to cause a reaction for 15 minutes at room temperature and with light shielding. Thereafter, the viable cell count and the cell viability were measured with a flow cytometer.
The above preparation, culture, and measurement were performed with n=3. Table 17, FIG. 17, Table 20, FIG. 20, Table 23, and FIG. 23 show the viable cell count in each peptide solution. Table 18, FIG. 18, Table 21, FIG. 21, Table 24, and FIG. 24 show the cell viability in each peptide solution. Table 19, FIG. 19, Table 22, FIG. 22, Table 25, and FIG. 25 show the amount of protein produced in each peptide solution.

Peptide text beside a SMILES is read from it.

With Asp-Gly-Pro [DGP], the “OD450 (average value n = 3)” value in assay [1] (Day 0) is listed as 0.1607. Also, the “OD450 (average value n = 3)” value in assay [1] (Day 1) is 0.4507. For the same compound, the “OD450 (average value n = 3)” value in assay [1] (Day 2) came out at 0.6840. For the same compound, the “OD450 (average value n = 3)” value in assay [1] (Day 3) came to 0.7700. For the same compound, the “OD450 (average value n = 3)” value in assay [1] (Day 4) was 0.9313. Also, the “OD450 (average value n = 3)” value in assay [1] (Day 5) is 0.9363. For the same compound, in assay [2], the “Amount of protein produced, Average” value was determined as 5.24 mg/L; the “Viability, Average” value is listed as 86.9; the “Cells cell count, Average” value is recorded as 14.6333 ×10^4; the “Amount of protein produced, 1” value worked out at 5.37 mg/L. For the same compound, in assay [2], the “Viability, 1” value was 86.3; the “Amount of protein produced, 2” value is recorded as 4.90 mg/L; the “Viability, 2” value was found to be 87.3; the “Amount of protein produced, 3” value amounted to 5.44 mg/L. In assay [2], the “Viability, 3” value was 87.2.

For the compound Gly-Pro-Pro [GPP], the “OD450 (average value n = 3)” value in assay [1] (Day 0) was determined as 0.2023. The “OD450 (average value n = 3)” value in assay [1] (Day 1) is 0.5267. Further, the “OD450 (average value n = 3)” value in assay [1] (Day 2) turned out to be 0.7083. The “OD450 (average value n = 3)” value in assay [1] (Day 3) came to 0.8350. Besides, the “OD450 (average value n = 3)” value in assay [1] (Day 4) is 1.0227. For the same compound, the “OD450 (average value n = 3)” value in assay [1] (Day 5) is reported as 0.9003. Further, in assay [2], the “Amount of protein produced, Average” value is reported as 5.86 mg/L; the “Viability, Average” value is 88.2; the “Cells cell count, Average” value is recorded as 15.5502 ×10^4; the “Amount of protein produced, 1” value is on record as 5.78 mg/L. In assay [2], the “Viability, 1” value is reported as 88.9; the “Amount of protein produced, 2” value was found to be 5.31 mg/L; the “Viability, 2” value is listed as 87.9; the “Amount of protein produced, 3” value is 6.50 mg/L. Also, the “Viability, 3” value in assay [2] turned out to be 87.9.

On to `NCCCC[C@H](NC(=O)[C@H](CCC(=O)O)NC(=O)CN)C(=O)O` [GEK, Gly-Glu-Lys] (H-Gly-Glu-Lys-OH; N-terminus and C-terminus assumed), for which the “OD450 (average value n = 3)” value in assay [1] (Day 0) worked out at 0.1613. In assay [1] (Day 1), the “OD450 (average value n = 3)” value is listed as 0.4280. In addition, in assay [1] (Day 2), the “OD450 (average value n = 3)” value is listed as 0.6043. Moreover, the “OD450 (average value n = 3)” value in assay [1] (Day 3) turned out to be 0.7300. Further, in assay [1] (Day 4), the “OD450 (average value n = 3)” value came to 0.9023. The “OD450 (average value n = 3)” value in assay [1] (Day 5) is given as 0.9107. Further, in assay [2], the “Amount of protein produced, Average” value was 5.59 mg/L; the “Viability, Average” value is 86.9; the “Cells cell count, Average” value was 15.9345 ×10^4; the “Amount of protein produced, 1” value is on record as 6.13 mg/L. In assay [2], the “Viability, 1” value is listed as 86.5; the “Amount of protein produced, 2” value turned out to be 4.59 mg/L; the “Viability, 2” value is 87.4; the “Amount of protein produced, 3” value turned out to be 6.06 mg/L. Also, the “Viability, 3” value in assay [2] is given as 86.7.

In the case of `C[C@H](N)C(=O)NCC(=O)N[C@@H](CCCCN)C(=O)O` [AGK, Ala-Gly-Lys] (H-Ala-Gly-Lys-OH; N-terminus and C-terminus assumed), in assay [1] (Day 0), the “OD450 (average value n = 3)” value was found to be 0.1757. The “OD450 (average value n = 3)” value in assay [1] (Day 1) is listed as 0.4577. The “OD450 (average value n = 3)” value in assay [1] (Day 2) is recorded as 0.7440. In addition, in assay [1] (Day 3), the “OD450 (average value n = 3)” value stood at 0.7997. The “OD450 (average value n = 3)” value in assay [1] (Day 4) is on record as 1.0263. Also, the “OD450 (average value n = 3)” value in assay [1] (Day 5) is recorded as 1.0620. Further, in assay [2], the “Amount of protein produced, Average” value was found to be 6.92 mg/L; the “Viability, Average” value came out at 88.5; the “Cells cell count, Average” value is 19.0887 ×10^4; the “Amount of protein produced, 1” value is on record as 7.36 mg/L. Also, in assay [2], the “Viability, 1” value came to 89.0; the “Amount of protein produced, 2” value amounted to 6.61 mg/L; the “Viability, 2” value worked out at 88.5; the “Amount of protein produced, 3” value was found to be 6.78 mg/L. The “Viability, 3” value in assay [2] was found to be 88.1.

The values are drawn from patent US20240101599A1, “PEPTIDE, CELL GROWTH PROMOTER, PROTEIN PRODUCTION PROMOTER, CULTURE MEDIUM, CELL GROWTH METHOD USING PEPTIDE, AND PROTEIN PRODUCTION METHOD USING PEPTIDE” (Maruhachi Muramatsu, Inc., priority 2020, published 2024).
